# Reference: patent publication US20200024278A1, “COMPOSITION COMPRISING ANTIBIOTIC COMPOUND AND AN HETEROCYCLIC COMPOUND AND THEIR USE IN PREVENTING OR TREATING BACTERIAL INFECTIONS” (MUTABILIS, priority 2016, published 2020)
# Like-named read-outs stand apart in the source and are kept apart here.
# Experiments:
# Test in all cases: MIC, broth microdilution (CLSI), substance alone or ATB combined with compound at 4 or 8 μg/mL
# ECL P99 = type: cell-based, E. cloacae; conditions: ECL P99
# Outline: (§1)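 Antibiotic MICs were determined in presence of fixed compound at 4 or 8 μg/mL, and compound MICs alone, by visual growth inhibition. Inoculum 5·10^5 CFU/mL in ca-MHB, incubated 35 °C for 16-20 h per CLSI-M7-A7. Glucose-6-phosphate (25 μg/ml) added when fosfomycin was tested.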
# PAE 105250 = type: cell-based, P. aeruginosa; conditions: PAE 105250
# Outline: as §1
# PAE UFR48 = type: cell-based, P. aeruginosa; conditions: PAE UFR48; for MIC: Pseudomonas aeruginosa
# Outline: as §1
# PAE UFR90 = type: cell-based, P. aeruginosa; conditions: PAE UFR90; for MIC: Pseudomonas aeruginosa
# Outline: as §1
# SAU 29213 = type: cell-based, S. aureus; conditions: SAU 29213
# Outline: as §1
# SPN 49619 = type: cell-based, S. pneumoniae; conditions: SPN 49619
# Outline: as §1
# [1] = antibiotic alone, read-out: MIC ATB alone
compound,measurement,setting,value
"NCC[C@H](O)C(=O)N[C@@H]1C[C@H](N)[C@@H](O[C@H]2O[C@H](CN)[C@@H](O)[C@H](O)[C@H]2O)[C@H](O)[C@H]1O[C@H]1O[C@H](CO)[C@@H](O)[C@H](N)[C@H]1O [AN, Amikacin, reference compound]",MIC ATB combined with Example 13 @8 μg/ml,ECL P99; with Example 13 at 8 μg/ml,0.125 µg/mL
same,MIC ATB combined with Example 14 @8 μg/ml,ECL P99; with Example 14 at 8 μg/ml,<0.031 µg/mL
same,MIC ATB combined with Example 15 @4 μgml,ECL P99; with Example 15 at 4 μg/ml,<=0.031 μg/mL
same,MIC ATB combined with Example 16 @4 μg/ml,ECL P99; with Example 16 at 4 μg/ml,<0.031 µg/mL
same,MIC,"ECL P99; Enterobacter cloacae, antibiotic alone, read-out: MIC ATB alone",0.063 µg/mL
same,MIC ATB combined with Example 1 @8 μg/ml,PAE 105250; with Example 1 @8 μg/ml,<0.031 µg/mL
same,MIC ATB combined with Example 1 @8 μg/ml,PAE 105250; with Example 1 at 8 μg/ml,<0.031 µg/mL
same,MIC ATB combined with Example 7 @8 μgml,PAE 105250; with Example 7 at 8 μg/ml,2 µg/mL
same,MIC ATB combined with Example 9 @4 μg/ml,PAE 105250; with Example 9 @4 μg/ml,2 µg/mL
same,MIC ATB combined with Example 9 @4 μg/ml,PAE 105250; with Example 9 at 4 μg/ml,2 µg/mL
same,MIC ATB combined with Example 11 @8 μg/ml,PAE 105250; with Example 11 at 8 μg/ml,2 µg/mL
same,MIC ATB combined with Example 12 @8 μg/ml,PAE 105250; with Example 12 at 8 μg/ml,2 µg/mL
same,MIC ATB combined with Example 13 @8 μg/ml,PAE 105250; with Example 13 at 8 μg/ml,2 µg/mL
same,MIC ATB combined with Example 14 @8 μg/ml,PAE 105250; with Example 14 at 8 μg/ml,1 µg/mL
same,MIC ATB combined with Example 15 @4 μgml,PAE 105250; with Example 15 at 4 μg/ml,2 µg/mL
same,MIC ATB combined with Example 16 @4 μg/ml,PAE 105250; with Example 16 at 4 μg/ml,1 µg/mL
same,MIC,"PAE 105250; Pseudomonas aeruginosa, antibiotic alone, read-out: MIC ATB alone",2 µg/mL
same,MIC ATB combined with Example 1 @8 μg/ml,PAE UFR48; with Example 1 @8 μg/ml,<0.031 µg/mL
same,MIC ATB combined with Example 1 @8 μg/ml,PAE UFR48; with Example 1 at 8 μg/ml,<0.031 µg/mL
same,MIC ATB combined with Example 7 @8 μgml,PAE UFR48; with Example 7 at 8 μg/ml,32 µg/mL
same,MIC ATB combined with Example 9 @4 μg/ml,PAE UFR48; with Example 9 @4 μg/ml,32 µg/mL
same,MIC ATB combined with Example 9 @4 μg/ml,PAE UFR48; with Example 9 at 4 μg/ml,32 µg/mL
same,MIC ATB combined with Example 11 @8 μg/ml,PAE UFR48; with Example 11 at 8 μg/ml,>32 µg/mL
same,MIC ATB combined with Example 12 @8 μg/ml,PAE UFR48; with Example 12 at 8 μg/ml,32 µg/mL
same,MIC ATB combined with Example 13 @8 μg/ml,PAE UFR48; with Example 13 at 8 μg/ml,32 µg/mL
same,MIC ATB combined with Example 14 @8 μg/ml,PAE UFR48; with Example 14 at 8 μg/ml,32 µg/mL
same,MIC ATB combined with Example 15 @4 μgml,PAE UFR48; with Example 15 at 4 μg/ml,>32 µg/mL
same,MIC ATB combined with Example 16 @4 μg/ml,PAE UFR48; with Example 16 at 4 μg/ml,32 µg/mL
same,MIC,PAE UFR48; [1],32 µg/mL
same,MIC,"PAE UFR48; substance alone, read-out: MIC",32 µg/mL
same,MIC ATB combined with Example 1 @8 μg/ml,PAE UFR90; with Example 1 @8 μg/ml,<0.031 µg/mL
same,MIC ATB combined with Example 1 @8 μg/ml,PAE UFR90; with Example 1 at 8 μg/ml,<0.031 µg/mL
same,MIC ATB combined with Example 7 @8 μgml,PAE UFR90; with Example 7 at 8 μg/ml,2 µg/mL
same,MIC ATB combined with Example 9 @4 μg/ml,PAE UFR90; with Example 9 @4 μg/ml,2 µg/mL
same,MIC ATB combined with Example 9 @4 μg/ml,PAE UFR90; with Example 9 at 4 μg/ml,2 µg/mL
same,MIC ATB combined with Example 11 @8 μg/ml,PAE UFR90; with Example 11 at 8 μg/ml,2 µg/mL
same,MIC ATB combined with Example 12 @8 μg/ml,PAE UFR90; with Example 12 at 8 μg/ml,2 µg/mL
same,MIC ATB combined with Example 13 @8 μg/ml,PAE UFR90; with Example 13 at 8 μg/ml,2 µg/mL
same,MIC ATB combined with Example 14 @8 μg/ml,PAE UFR90; with Example 14 at 8 μg/ml,2 µg/mL
same,MIC ATB combined with Example 15 @4 μgml,PAE UFR90; with Example 15 at 4 μg/ml,2 µg/mL
same,MIC ATB combined with Example 16 @4 μg/ml,PAE UFR90; with Example 16 at 4 μg/ml,2 µg/mL
same,MIC,PAE UFR90; [1],2 µg/mL
same,MIC,"PAE UFR90; substance alone, read-out: MIC",2 µg/mL
same,MIC ATB combined with Example 1 @8 μg/ml,SAU 29213; with Example 1 @8 μg/ml,4 µg/mL
same,MIC ATB combined with Example 1 @8 μg/ml,SAU 29213; with Example 1 at 8 μg/ml,4 µg/mL
same,MIC ATB combined with Example 7 @8 μgml,SAU 29213; with Example 7 at 8 μg/ml,2 µg/mL
same,MIC ATB combined with Example 9 @4 μg/ml,SAU 29213; with Example 9 @4 μg/ml,<0.031 µg/mL
same,MIC ATB combined with Example 9 @4 μg/ml,SAU 29213; with Example 9 at 4 μg/ml,<0.031 µg/mL
same,MIC ATB combined with Example 11 @8 μg/ml,SAU 29213; with Example 11 at 8 μg/ml,<0.031 µg/mL
same,MIC ATB combined with Example 12 @8 μg/ml,SAU 29213; with Example 12 at 8 μg/ml,<0.031 µg/mL
same,MIC ATB combined with Example 13 @8 μg/ml,SAU 29213; with Example 13 at 8 μg/ml,4 µg/mL
same,MIC ATB combined with Example 14 @8 μg/ml,SAU 29213; with Example 14 at 8 μg/ml,<0.031 µg/mL
same,MIC ATB combined with Example 15 @4 μgml,SAU 29213; with Example 15 at 4 μg/ml,<0.031 µg/mL
same,MIC ATB combined with Example 16 @4 μg/ml,SAU 29213; with Example 16 at 4 μg/ml,<0.031 µg/mL
same,MIC,"SAU 29213; Staphylococcus aureus, antibiotic alone, read-out: MIC ATB alone",2 µg/mL
same,MIC ATB combined with Example 1 @8 μg/ml,SPN 49619; with Example 1 @8 μg/ml,32 µg/mL
same,MIC ATB combined with Example 1 @8 μg/ml,SPN 49619; with Example 1 at 8 μg/ml,32 µg/mL
same,MIC ATB combined with Example 7 @8 μgml,SPN 49619; with Example 7 at 8 μg/ml,>32 µg/mL
same,MIC ATB combined with Example 9 @4 μg/ml,SPN 49619; with Example 9 @4 μg/ml,<0.031 µg/mL
same,MIC ATB combined with Example 9 @4 μg/ml,SPN 49619; with Example 9 at 4 μg/ml,<0.031 µg/mL
same,MIC ATB combined with Example 11 @8 μg/ml,SPN 49619; with Example 11 at 8 μg/ml,32 µg/mL
same,MIC ATB combined with Example 12 @8 μg/ml,SPN 49619; with Example 12 at 8 μg/ml,4 µg/mL
same,MIC ATB combined with Example 13 @8 μg/ml,SPN 49619; with Example 13 at 8 μg/ml,>32 µg/mL
same,MIC ATB combined with Example 14 @8 μg/ml,SPN 49619; with Example 14 at 8 μg/ml,4 µg/mL
same,MIC ATB combined with Example 15 @4 μgml,SPN 49619; with Example 15 at 4 μg/ml,32 µg/mL
same,MIC ATB combined with Example 16 @4 μg/ml,SPN 49619; with Example 16 at 4 μg/ml,16 µg/mL
same,MIC,"SPN 49619; Streptococcus pneumoniae, antibiotic alone, read-out: MIC ATB alone",32 µg/mL
